Source: PMC7673538 (PLoS Biology, 2020)
Several values for one entry are separate records, joined by “and”; a condition that tells them apart may be missing. Equal entries are not always repeated. Where two headings read alike, the source gives them in different places.

What was measured:
[1] = system: EV-A71; test: microbe, parasite or virus in culture; type: cell-based, enterovirus A71; settings: for EC50: Enterovirus A
[2] = in vitro; settings: human
[3] = system: CV-B3; test: microbe, parasite or virus in culture; type: cell-based, coxsackievirus B3
[4] = system: CV-A24 (strain Joseph); type: cell-based, coxsackievirus A24
[5] = system: HeLa R19 cells
[6] = system: PV-1; test: microbe, parasite or virus in culture; type: cell-based, poliovirus 1; settings: for EC50: Enterovirus C
[7] = system: HRV-A2; type: cell-based, human rhinovirus
[8] = target: T1, human SERT (Homo sapiens, UniProt P31645); type: cell-based; settings: for SERT, Mean (Figure 8B): Control = 100.00; for SERT, Mean as % (Figure 8B): Control = 100%
T1 construct: expressed in transfected cells; host or cells: HEK293 (gift of Dr. Hoener, F. Hoffmann-La Roche)

[9] = target: T2, human DAT (Homo sapiens, UniProt Q01959); type: cell-based; settings: for DAT, Mean (Figure 8B): Control = 100; for DAT, Mean as % (Figure 8B): Control = 100%
T2 construct: expressed in transfected cells; host or cells: HEK293 (gift of Dr. Hoener, F. Hoffmann-La Roche)
T2 sequence (Q01959 whole entry): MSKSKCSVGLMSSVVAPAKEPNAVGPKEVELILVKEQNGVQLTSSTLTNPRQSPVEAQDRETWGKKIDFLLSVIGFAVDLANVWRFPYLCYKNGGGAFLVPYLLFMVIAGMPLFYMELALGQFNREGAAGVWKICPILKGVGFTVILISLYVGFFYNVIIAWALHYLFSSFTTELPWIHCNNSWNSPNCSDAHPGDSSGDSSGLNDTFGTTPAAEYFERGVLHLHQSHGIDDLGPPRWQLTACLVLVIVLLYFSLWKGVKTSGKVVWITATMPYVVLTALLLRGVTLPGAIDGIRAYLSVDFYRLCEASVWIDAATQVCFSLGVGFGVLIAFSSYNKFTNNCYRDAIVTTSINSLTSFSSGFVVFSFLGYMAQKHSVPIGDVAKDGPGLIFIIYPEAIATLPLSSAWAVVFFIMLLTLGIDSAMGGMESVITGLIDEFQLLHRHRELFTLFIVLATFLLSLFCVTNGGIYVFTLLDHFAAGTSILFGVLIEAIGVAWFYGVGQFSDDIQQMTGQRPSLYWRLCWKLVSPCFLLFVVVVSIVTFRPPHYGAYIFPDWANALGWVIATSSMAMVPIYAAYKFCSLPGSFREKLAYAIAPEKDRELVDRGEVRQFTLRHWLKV

T1 sequence (P31645 whole entry): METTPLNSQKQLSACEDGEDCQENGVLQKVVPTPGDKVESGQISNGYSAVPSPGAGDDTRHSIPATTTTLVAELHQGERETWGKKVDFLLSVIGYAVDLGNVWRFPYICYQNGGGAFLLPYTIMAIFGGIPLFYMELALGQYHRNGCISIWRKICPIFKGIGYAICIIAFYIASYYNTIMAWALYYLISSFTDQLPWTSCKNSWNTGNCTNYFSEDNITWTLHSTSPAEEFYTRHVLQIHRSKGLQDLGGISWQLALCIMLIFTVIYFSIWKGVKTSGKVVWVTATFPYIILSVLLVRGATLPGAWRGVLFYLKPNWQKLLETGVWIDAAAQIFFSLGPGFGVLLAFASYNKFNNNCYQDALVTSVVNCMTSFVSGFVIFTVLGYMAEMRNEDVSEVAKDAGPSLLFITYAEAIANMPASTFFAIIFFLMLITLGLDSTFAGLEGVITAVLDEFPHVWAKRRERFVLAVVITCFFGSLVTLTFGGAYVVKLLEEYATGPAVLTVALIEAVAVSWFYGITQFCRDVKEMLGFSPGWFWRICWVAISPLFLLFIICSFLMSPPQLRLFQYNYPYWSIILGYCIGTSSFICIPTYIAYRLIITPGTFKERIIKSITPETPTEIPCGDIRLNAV

**Q.** For `COc1ccc(N(Cc2ccc(F)cc2)C(=O)c2cc[nH]c2)cc1` [Compound 12a, N-(4-Fluorobenzyl)-N-(4-methoxyphenyl)-1H-pyrrole-3-carboxamide], which “Figure 7 dose-response raw data, EV-A71 (triplicate values)” value ([1]; Concentration 33.3333 µM) is on record?
**A.** 119.701 and 118.637 and 111.781

**Q.** And the “Figure 7 dose-response raw data, EV-A71 (triplicate values)” value ([1]; Concentration 100 µM)?
**A.** 110.819 and 116.746 and 120.126

**Q.** What about the EC50 ([1]; EVA71, HeLa R19, read-out: EC50 EV-A71) of the same compound?
**A.** 4030 ± 730 nM

**Q.** What about the EC50 ([1]; EVA71, HeLa R19, read-out: EC50 EV-A71 strain BrCr) of the same compound?
**A.** 4480 ± 420 nM

**Q.** What about the EC50 ([1]; EVA71, HeLa R19, read-out: EC50 EV-A71 strain TW/2728/04) of the same compound?
**A.** 8330 ± 650 nM

**Q.** And the EC50 ([1]; EVA71, HeLa R19, read-out: EC50 EV-A71 strain TW/2945/98)?
**A.** 9170 ± 410 nM

**Q.** What about the EC50 ([1]; EVA71, HeLa R19, read-out: EC50 EV-A71 strain TW/70811/08) of the same compound?
**A.** 8180 ± 610 nM

**Q.** What about the EC50 ([1]; EVA71, HeLa R19, read-out: EC50 EV-A71 strain TW/72232/04) of the same compound?
**A.** 6410 ± 2090 nM

**Q.** And the EC50 ([1]; EVA71, HeLa R19, read-out: EC50 EV-A71 strain TW/96016/08)?
**A.** 9470 ± 40 nM

**Q.** What about the CC50 ([2]; CC50 Average) of the same compound?
**A.** > 30000 nM

**Q.** What about the CC50 ([2]; CC50 HelaR19 Average) of the same compound?
**A.** > 100000 nM

**Q.** And the CC50 ([2]; Exp 1 CC50)?
**A.** > 30000 nM

**Q.** What about the CC50 ([2]; Exp 1 CC50 HelaR19) of the same compound?
**A.** > 100000 nM

**Q.** What about the CC50 ([2]; Exp2 CC50) of the same compound?
**A.** > 30000 nM

**Q.** And the CC50 ([2]; Exp 2 CC50 HelaR19)?
**A.** > 100000 nM

**Q.** And the “cross-resistance of 19d-resistant CV-B3 virus pools (in words)” value [3]?
**A.** cross-resistant

**Q.** What about the “increase of antiviral activity against CV-B3” value [3] of the same compound?
**A.** ~25 fold

**Q.** And the “Figure 7 dose-response raw data, CV-B3 (triplicate values)” value (from here on “Figure 7 dose-response raw data, CV-B3”) ([3]; Concentration 0.001 µM)?
**A.** 10.6023 and 13.4886 and 15.1049

**Q.** What about the “Figure 7 dose-response raw data, CV-B3” value ([3]; Concentration 0.0137 µM) of the same compound?
**A.** 31.7298 and 16.0285 and 26.5345

**Q.** And the “Figure 7 dose-response raw data, CV-B3” value ([3]; Concentration 0.3704 µM)?
**A.** 108.081 and 95.0938 and 115.255

**Q.** What about the “Figure 7 dose-response raw data, CV-B3” value ([3]; Concentration 1.1111 µM) of the same compound?
**A.** 110.307 and 87.92 and 98.0623

**Q.** What about the “Figure 7 dose-response raw data, CV-B3” value ([3]; Concentration 3.3333 µM) of the same compound?
**A.** 103.381 and 89.7753 and 100.165

**Q.** And the “Figure 7 dose-response raw data, CV-B3” value ([3]; Concentration 10 µM)?
**A.** 102.144 and 95.7122 and 98.0623

**Q.** What about the EC50 ([3]; Enterovirus B, CVB3, HeLa) of the same compound?
**A.** 10 ± 10 nM

**Q.** What about the EC50 ([3]; Enterovirus B, CVB3, HeLa R19, […], read-out: EC50 Exp1) of the same compound?
**A.** 180 nM

**Q.** And the EC50 ([3]; Enterovirus B, CVB3, HeLa R19, read-out: 50% effective concentration [EC50])?
**A.** 80 ± 80 nM

**Q.** And the EC50 ([3]; Enterovirus B, CVB3, HeLa R19, read-out: CV-B3 Exp 1 EC50)?
**A.** 59 nM

**Q.** What about the EC50 ([3]; Enterovirus B, CVB3, HeLa R19, read-out: CV-B3 Exp2 EC50) of the same compound?
**A.** 95 nM

**Q.** And the EC50 ([3]; Enterovirus B, CVB3, HeLa R19, read-out: EC50 Average)?
**A.** 18.7 nM

**Q.** What about the EC50 ([3]; Enterovirus B, CVB3, HeLa R19, read-out: EC50 Exp1) of the same compound?
**A.** 17 nM

**Q.** What about the EC50 ([3]; Enterovirus B, CVB3, HeLa R19, read-out: EC50 Exp2) of the same compound?
**A.** 370 nM

**Q.** What about the EC50 ([3]; Enterovirus B, CVB3, HeLa R19, read-out: EC50 HelaR19 Average) of the same compound?
**A.** 11.2 nM

**Q.** What about the EC50 ([3]; Enterovirus B, CVB3, HeLa R19, read-out: Exp 1 EC50 HelaR19) of the same compound?
**A.** 4 nM

**Q.** What about the EC50 ([3]; Enterovirus B, CVB3, HeLa R19, read-out: Exp 2 EC50 HelaR19) of the same compound?
**A.** 18.3 nM

**Q.** What about the EC50 ([3]; Enterovirus B, CVB3 / genotype 2c, HeLa R19, read-out: EC50 CV-B3 WT) of the same compound?
**A.** 20 ± 10 nM

**Q.** What about the EC50 ([3]; read-out: EC50 Exp2) of the same compound?
**A.** 210 nM

**Q.** What about the “virus titer, TCID50/ml (Figure 2A)” value ([4]; compound concentration 0.1 µM) of the same compound?
**A.** 469824 TCID50/ml and 562341 TCID50/ml and 300000 TCID50/ml

**Q.** And the “virus titer, TCID50/ml (Figure 2A)” value ([4]; compound concentration 1 µM)?
**A.** 169824 TCID50/ml and 316228 TCID50/ml

**Q.** And the “virus titer, TCID50/ml (Figure 2A)” value ([4]; compound concentration 100 µM)?
**A.** 316.228 TCID50/ml

**Q.** And the “cytotoxicity (in words)” value [5]?
**A.** no cytotoxicity

**Q.** And the “Figure 7 dose-response raw data, PV-1 (triplicate values)” value ([6]; Concentration 0.0046 µM)?
**A.** 10.497 and 11.7005 and 9.1598

**Q.** What about the “Figure 7 dose-response raw data, PV-1 (triplicate values)” value ([6]; Concentration 0.0137 µM) of the same compound?
**A.** 10.497 and 11.7005 and 9.1598

**Q.** What about the “Figure 7 dose-response raw data, PV-1 (triplicate values)” value ([6]; Concentration 0.0412 µM) of the same compound?
**A.** 10.7644 and 8.357 and 9.1598

**Q.** And the “Figure 7 dose-response raw data, PV-1 (triplicate values)” value ([6]; Concentration 0.1235 µM)?
**A.** 13.4388 and 8.357 and 9.294

**Q.** What about the “Figure 7 dose-response raw data, PV-1 (triplicate values)” value ([6]; Concentration 0.3704 µM) of the same compound?
**A.** 10.497 and 11.7005 and 9.1598

**Q.** What about the “Figure 7 dose-response raw data, PV-1 (triplicate values)” value ([6]; Concentration 1.1111 µM) of the same compound?
**A.** 10.7644 and 8.357 and 9.1598

**Q.** What about the “Figure 7 dose-response raw data, PV-1 (triplicate values)” value ([6]; Concentration 3.3333 µM) of the same compound?
**A.** 13.4388 and 8.357 and 9.294

**Q.** And the “Figure 7 dose-response raw data, PV-1 (triplicate values)” value ([6]; Concentration 100 µM)?
**A.** 99.781 and 98.9928 and 101.358

**Q.** And the EC50 ([6]; HeLa R19, read-out: EC50 Exp1)?
**A.** 3890 nM

**Q.** What about the EC50 ([6]; HeLa R19, read-out: EC50 Exp2) of the same compound?
**A.** 3530 nM

**Q.** And the EC50 ([6]; HeLa R19, read-out: EC50 PV-1)?
**A.** 3710 ± 180 nM

**Q.** What about the “virus titer, TCID50/ml (Figure 2A)” value ([7]; compound concentration 3 µM) of the same compound?
**A.** 354813 TCID50/ml

**Q.** What about the “virus titer, TCID50/ml (Figure 2A)” value ([7]; compound concentration 100 µM) of the same compound?
**A.** 737.962 TCID50/ml and 467.735 TCID50/ml and 500 TCID50/ml

**Q.** What about the “SERT, Mean (Figure 8B)” value ([8]; 1µM) of the same compound?
**A.** 99.47

**Q.** And the “SERT, Mean as % (Figure 8B)” value ([8]; 1µM)?
**A.** 99%

**Q.** What about the “SERT, Mean (Figure 8B)” value ([8]; 100µM) of the same compound?
**A.** 114.09

**Q.** What about the “SERT, Mean as % (Figure 8B)” value ([8]; 100µM) of the same compound?
**A.** 114%

**Q.** And the “inhibition of SERT-mediated uptake (in words)” value ([8]; HEK293 cells expressing human SERT, 1 and 100 μM)?
**A.** neither 12a, 19b, 19d, nor the combined compound 12b inhibited

**Q.** And the “DAT, Mean (Figure 8B)” value ([9]; 1µM)?
**A.** 80.4016

**Q.** What about the “DAT, Mean as % (Figure 8B)” value ([9]; 1µM) of the same compound?
**A.** 80%

**Q.** And the “DAT, Mean (Figure 8B)” value ([9]; 100µM)?
**A.** 86.9569

**Q.** And the “DAT, Mean as % (Figure 8B)” value ([9]; 100µM)?
**A.** 87%

**Q.** What about the “inhibition of DAT function (in words)” value ([9]; HEK293 cells expressing human DAT, 1 μM or 100 μM) of the same compound?
**A.** neither 12a, 19b, 19d, nor the combined compound 12b inhibited
